According to US9585957B2, “Adenosine receptor agonists and antagonists to modulate T cell responses” (THE JOHNS HOPKINS UNIVERSITY, priority 2007, dated 2017):

Assays:
B16 melanoma cells = experiment: B16 melanoma lung metastases in mice treated with TA99 antibody, with or without ZM; type: in vivo; settings: Wt mice, 200 ug TA99 on day +1 plus ZM 10 mg/kg IP twice a day from Day 0; Day +15 (FIG. 17)
Experimental: Wt and A2a receptor null mice received 1 million B16 melanoma cells IV on day 0. Control mice received not treatment. Treated mice received 200 ug IP of TA99 antibody on days 0, 2, 5. The mice were sacrificed on Day 15 and lung mets were counted.
Wt mice received 1 million B16 melanoma cells on Day 0. On day +1 they received either no treatment or 200 ug of TA99 antibody. Zm treated mice received 10 mg/kg IP of ZM twice a day beginning on Day 0 and continuing for the remainder of the experiment. The mice were evaluated on Day +15.
Wt and A2a receptor null mice received 1 million B16 melanoma cells IV on day 0. Control mice received not treatment. Treated mice received 200 ug IP of TA99 antibody on days 0, 2, 5. The mice were sacrificed on Day 15 and lung metastases were counted. […] Eliminating A2a receptor activity in the mice reduced melanoma metastases by approximately 50% and treatment with the antibody reduced metastases by approximately 60%. However, when knock out mice are treated with the antibody, the level of tumor metastases dropped by approximately 80% when compared to untreated wild type, and by 50% or more when compared to either the knock out or antibody treated wild type mice.

LAG-3 = LAG-3 upregulation in A.E7 T cells (ionomycin or PMA stimulation; CsA); type: cell-based; settings: ionomycin alone (FIG. 3c)
Description: FIGS. 3(a)-(f) are graphs showing that A2a receptor signaling promotes the upregulation of LAG-3^+ in vitro. […] Data are representative of 3 independent experiments. 3(c) is a graph of LAG3 upregulation in A.E7 T cells following stimulation with ionomycin or PMA. 3(d) is an image of representative Western blots for phosphor-ERK and total ERK (top and bottom respectively). […] Data are representative of 3 independent experiments. 3(e) is an image of representative Western blots for junB, and actin (top and bottom, respectively). […] Data are representative of 3 independent experiments. 3(f) is an image of representative EMSA for AP-1. […] Data are representative of 3 independent experiments.

Compound | reduction of average lung metastases, antibody in combination with ZM (B16 melanoma cells) | LAG-3 upregulation (LAG-3)
Nc1nc(NCCc2ccc(O)cc2)nc2nc(-c3ccco3)nn12 [ZM, 4-(2-[7-amino-2-(2-furyl)[1,2,4]triazolo[2,3-a][1,3,5]triazin-5-ylamino]ethyl)phenol] | approximately 80% | 
C[C@H](CCC(=O)O)C[C@H](C)C[C@H](C)C(=O)/C=C(\O)[C@H](C)C[C@H](C)C/C=C/[C@@H](C)[C@@H](O)[C@@H](C)[C@@H](O)C[C@@H]1CC[C@@](C)([C@H]2CC[C@@](C)([C@@H](C)O)O2)O1 [ionomycin] |  | markedly upregulated
